In US20230015532A1, “PHARMACEUTICAL COMPOSITION, FOR PREVENTING OR TREATING FIBROSIS, COMPRISING PHEOPHORBIDE COMPOUND AS ACTIVE INGREDIENT” (PAEAN BIOTECHNOLOGY INC., priority 2019, published 2023):

Assays:
[1] = tested on: CCD8-Lu cells and LL-29 cells; assay: Cytotoxicity of pheophorbide a (WST-1 cell survival); format: cell-based, human; details: 72 hours, CCD8-Lu and LL-29
Procedure: In order to confirm the cytotoxicity of pheophorbide a obtained in Preparation Example 2, CCD8-Lu cells and LL-29 cells which are human lung-derived fibroblasts, were used. CCD8-Lu cells and LL-29 cells were inoculated into 96 well plates with […] cells/well and stabilized while culturing for 24 hours in a wet CO2 incubator at 37° C. The cultured cells were treated with different concentrations of pheophorbide a obtained in Preparation Example 2 and, 72 hours later, treated with the WST-1 reagent. After 1 hour, the survival rate of the cells was measured using a microplate reader (EZ Read 400, biochrom, UK) to determine the absorbance at 450 nm, and the toxicity was evaluated.
The cell survival rate as a result of the experiment is shown in FIG. 3 by expressing the percentage of the absorbance of the sample-treated group relative to the control group.

[2] = tested on: collagen 1A in CCD8-Lu cells; assay: Comparison of anti-fibrotic activity by immunocytochemistry staining (Experimental Example 4.3); format: cell-based, human; details: 2.5 μM and 5 μM; 6 hours after 5 ng/ml TGF-β; fluorescence intensity
Procedure: A cell-based analysis experiment was performed to analyze the anti-fibrotic activity of pheophorbide a in comparison with nintedanib and pirfenidone, which were previously approved as a therapeutic agent for pulmonary fibrosis, using immunocytochemistry staining method. CCD8-Lu cells, which are human lung-derived fibroblasts, were cultured in the DMEM medium containing 10% FBS. About 2×10^4 cells were then inoculated into a 24 well plate and cultured for 24 hours, and subjected to the deficient condition in the DMEM medium from which FBS was removed for about 24 hours. After 24 hours, following the treatment with TGF-β at a concentration of 5 ng/ml, fibrosis of cells was induced for 6 hours. After 6 hours, the cells were treated with 2.5 μM or 5 μM of pheophorbide a, 1 μM of nintedanib, or 1 mM of pirfenidone. Immunohistochemistry analysis for each sample was performed as follows. First, the sample was washed twice with a PBS buffer, and then 4% formaldehyde was added to fix for 1 hour, and anti-collagen 1A was used as a primary antibody and Alexa Fluor 488 was used as a secondary antibody. The nuclei were stained using DAPI (4,6-diamidino-2-phenylindole) and the difference in the intensity of fluorescence was analyzed using a fluorescence microscope.

[3] = tested on: collagen 1A, fibronectin and alpha-smooth muscle actin proteins in CCD8-Lu cells; assay: Anti-fibrotic activity by Western blotting (Experimental Example 3.1); format: cell-based, human; details: 0.06-5 μM, 6 hours after TGF-β, 18 hours
Procedure: A cell-based assay experiment was performed using Western blotting assay to analyze the anti-fibrotic activity of pheophorbide a.
CCD8-Lu cells, which are human lung-derived fibroblasts, were cultured in the DMEM medium containing 10% FBS. Then, about 2×10^5 cells were inoculated into a 6 well plate and cultured for 24 hours, and subjected to the deficient condition in the DMEM medium from which FBS was removed for about 24 hours.
24 hours later, following the treatment with TGF-β at a concentration of 5 ng/ml, fibrosis of cells was induced for 6 hours. After 6 hours, the cells were treated with pheophorbide a obtained in Preparation Example 2 and further cultured for 18 hours (FIG. 2). Then, the negative control group was treated with nothing, the positive control group was treated with TGF-β alone at a concentration of 5 ng/ml, and the experimental groups were treated with TGF-β at a concentration of […] and 6 hours later, with pheophorbide a at each concentration of 0.06 μM, 0.12 μM, 0.25 μM, 0.5 μM, 2.5 μM and 5 μM. […]
(§1) The separated supernatant was obtained and transferred to a new microtube and then the protein was quantified using a bicinchoninic acid assay (BCA assay) protein quantitative kit. […]

[4] = tested on: Smad protein activity in Balb/c3T3 cells; assay: Smad-binding luciferase reporter assay of TGF-β signaling; format: cell-based; details: 0.06-5 μM together with 5 ng/ml TGF-β, 20 hours
Procedure: A vector was prepared in which a gene obtained by repeating eight times the nucleotide sequence (5′-[…]-3′ SEQ ID NO: 1) to which the Smad gene can bind was linked to a gene encoding luciferase as a reporter gene. The above vector was transfected into Balb/c3T3 cells together with a vector in which the RSV promoter gene was linked to a gene encoding beta-galactosidase. After 6 hours, the negative control group was treated with nothing, the positive control group was treated with TGF-β at a concentration of 5 ng/ml, and the experimental groups were treated with pheophorbide a obtained in Preparation Example 2 at each concentration of 0.06 μM, 0.12 μM, 0.25 μM, 0.5 μM, 1 μM, and 5 μM, together with 5 ng/ml of TGF-β.
The cells were then cultured in 5% CO2 incubator at 37° C. for 20 hours, and then luciferase analysis was performed.

[5] = tested on: α-SMA, collagen 1A and fibronectin in CCD8-Lu cells; assay: Comparison of anti-fibrotic activity by Western blotting (Experimental Example 4.2); format: cell-based, human; details: 2.5 μM and 5 μM, 6 hours after 5 ng/ml TGF-β, 18 hours
Procedure: A cell-based analysis experiment was performed to analyze the anti-fibrotic activity of pheophorbide a in comparison with nintedanib and pirfenidone, which were previously approved as a therapeutic agent for pulmonary fibrosis, using Western blotting assay.
CCD8-Lu cells, which are human lung-derived fibroblasts, were cultured in the DMEM medium containing 10% FBS. About 2×10^5 cells were then inoculated into a 6 well plate, cultured for 24 hours, and subjected to the deficient condition in the DMEM medium from which FBS was removed for about 24 hours.
24 hours later, following the treatment with TGF-β at a concentration of 5 ng/ml, fibrosis of cells was induced for 6 hours. Then, the cells were treated with pheophorbide a obtained in Preparation Example 2 or the therapeutic agent for pulmonary fibrosis and further cultured for 18 hours. Then, the negative control group was treated with nothing, the positive control group was treated with TGF-β alone at a concentration of 5 ng/ml, and the experimental groups were treated with TGF-β at a concentration of 5 ng/ml and 6 hours later, with pheophorbide a at a concentration of […] or 5 μM, nintedanib at a concentration of 1 μM, and pirfenidone at a concentration of 1 mM, respectively.
After 18 hours, the culture medium was removed and the cells were washed twice by adding a PBS buffer solution, and 100 μl of RIPA buffer solution (150 mM NaCl, 1% NP-40, 0.5% Deoxycholic acid, 0.1% SDS, 50 mM Tris pH 7.5) containing a protease inhibitor was added thereto directly. 10 minutes later, the cells were recovered using a scraper and transferred to a microtube and centrifuged at about 12,000×g for 10 minutes.
as §1, with “kit. Each sample with the same amount of protein was subjected to electrophoresis, and then Western blotting was performed.” for “kit.”

With pheophorbide a the cytotoxicity ([1]; concentration of 5 μM) was “about 25%”, the cytotoxicity ([1]; concentration of 10 μM) was “about 75%” and the cytotoxicity ([1]; up to a concentration of 2.5 μM) was “little cytotoxicity”. For the same substance, the “increased expression of collagen 1A induced by TGF-β” value [2] was “remarkably inhibited”, the “expression of collagen 1A, fibronectin, and smooth muscle actin proteins induced by TGF-β” value [3] was “inhibited” and the “activity of Smad protein increased by TGF-β (luciferase)” value [4] was “decreased by pheophorbide a in a concentration-dependent manner”. For the same substance, the “expression of the α-SMA, collagen 1A, and fibronectin induced by TGF-β” value [5] was “remarkably inhibited”.
